# Test results from US7514432B2, “Compounds and methods of treating cell proliferative diseases, retinopathies and arthritis” (Exonhit Therapeutics SA, priority 2003, dated 2009).
# Legend:
# [1] = tested on: quiescent Swiss 3T3 cells; experiment: Compounds' effect on the actin cytoskeleton (Rac-induced ruffles); assay type: cell-based; conditions: 30 min pre-treatment, subtoxic doses; osmotic shock 10 min (50% H2O)
# Procedure: FIG. 1: Study of compounds effect on the actin cytoskeleton. Quiescent Swiss 3T3 cells were treated for 30 minutes with various concentrations of the compounds and were then submitted to osmotic shock by 10 min. incubation in a medium containing 50% H2O. Cells were subsequently fixed, permeabilized and labeled with Phalloidin TRITC. 100 to 200 cells were counted under a microscope, and the percentage of cells displaying lamellipodia and ruffles was evaluated.
# Quiescence of Swiss 3T3 cells: Cells are seeded at high density on coverslips in 5% FCS medium (special weak FCS). When cells become quiescent (after 6-10 days of culture), the medium is removed (a few microliters remaining in the well) and replaced with serum free medium. Cells are placed in the incubator overnight. […]
# Immunofluorescence • Fixation and permeabilization: Medium is aspirated from the culture wells and replaced with fixation buffer (BRB80: 80 mM KPipes pH 6.8, 2 mM MgCl2, 5 mM EGTA, 0.3% paraformaldehyde). […] Mounting is allowed to dry at 37° C. for 1 h. • Quantification of the effect of the compounds: The total number of cells is counted under the microscope (at least three different fields, e.g. between 100 and 200 cells). The number of cells bearing the morphological features of interest is evaluated. The percentage of cells bearing the morphological features of interest is then calculated.
# REF cells = experiment: Wound healing assay (time-lapse microscopy); assay type: cell-based; conditions: time lapse 8 hours
# Procedure: FIG. 4: Migration assays. (A) Wound healing assay in REF cells. 7.6 10^4 cells were plated on coverslips 48 hours before the experiment. The cells were pre-treated for 30 min. with the compounds, and then a scrape was done using a pipette tip. The scraped coverslips in treatment medium were put under a thermostated microscope coupled to a video camera. Movies were analyzed as described in material and methods, and velocity and total distance covered by the cells were evaluated. Bar graphs represent the mean±SEM of 2 to 4 experiments. (B) Boyden chamber migration assay in HMEC1, NIH3T3 and MDA-MB-231 cells. […] After labeling, cells were washed with HBSS and fluorescence was read in a fluorescence plate reader. Fluorescence values were normalized against the fluorescence obtained for the 1% DMSO control. […]
# This assay has been described by Nobes & Hall (J. Cell Biol., 1999). • Preparation of REF cells: REF cells are prepared from 15-18 E14 embryos. […] Only the torso is kept, sliced into small squares, washed, treated with trypsin-EDTA for 20 min. at 37° C., resuspended in medium, counted and plated. […] Microscope images were collected every 5 minutes and recorded using the OpenLab software. When the assay is terminated (after 4 to 24 hours), pictures and movies are analyzed using the Metamorphe software. […] The position of each point was recorded. […]
compound,measurement,setting,value
"CN1CCN(Cc2cc(=O)c(OCCCCCSc3ccnc4cc(C(F)(F)F)ccc34)co2)CC1.Cl.Cl.Cl [EHT 9241, 5-(5-(7-(Trifluoromethyl)quinolin-4-ylthio)pentyloxy)-2-((4-methylpiperazin-1-yl)methyl)-4H-pyran-4-one trihydrochloride]",formation of ruffles induced by Rac after osmotic shock,[1],dose-dependently prevents formation of ruffles
same,decrease of migration of REF cells (velocity and total distance covered),REF cells; 10 μM,36%
"Cl.Cl.O=c1cc(CN2CCOCC2)occ1OCCCCCSc1ccnc2cc(C(F)(F)F)ccc12 [EHT 1864, 5-(5-(7-(Trifluoromethyl)quinolin-4-ylthio)pentyloxy)-2-(morpholinomethyl)-4H-pyran-4-one dihydrochloride]",formation of ruffles induced by Rac after osmotic shock,[1],dose-dependently prevents formation of ruffles
same,decrease of migration of REF cells (velocity and total distance covered),REF cells; 30 μM,about 48%
